The source of these data is PubChem BioAssay AID602279 (Broad Institute, 2012).

Test [1] in a line: yeast growth restoration under alpha-synuclein stress, dose response, S. cerevisiae, OD600, dry powder (AID 602279). To be noted: S. cerevisiae alpha-synuclein toxicity rescue, OD600 growth, 24 h; at 26 µM (top of the series).
Test [2] concerns S. cerevisiae alpha-synuclein toxicity rescue, OD600 growth, 24 h. The test is described as above.

Activity calls are given as the source filed them.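 The calls were made as follows: active = fitted curve reaches 40% growth rescue activation at or below the top valid tested concentration; inconclusive = flat fit between 30 and 70%, or poor fit quality; inactive = activity opposite to the expected rise, and the rest.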

In the case of `O=c1c2ccccc2[nH]c(=S)n1CCC1=CCCCC1`, the growth rescue activation in test [1] is 18.9% (inactive).

On to `Cc1ccccc1CSc1nsc(N)n1`, for which the AC40 in test [2] was > 26 µM (inactive).

`Fc1cc(NCc2ccccc2)nc(NCc2ccccc2)n1`: the AC40 in test [2] was > 26 µM (inactive).

For the molecule `CC(C)c1ccc(C2NC(=O)c3ccccc3O2)cc1` (centres undefined), the AC40 in test [2] is > 26 µM (inactive).
